Measurements reported in patent publication US20220031636A1, “COMPOUNDS THAT ENHANCE THE ACTION OF METFORMIN” (SOCIETE DES PRODUiTS NESTLE S.A., priority 2018, published 2022).
“Also recorded” adds a separate entry of the source.

Legend:
[1] = molecular target: T1, bacterially-expressed AMPKα2β1γ1 (Homo sapiens, UniProt P54619+P54646+Q9Y478); test: HTRF-KinEASE kinase assay of phosphorylated AMPK heterotrimer with AMP and fixed concentrations of Lusianthridin; format: biochemical
T1 construct: His; made in house
Protocol: The AMPK heterotrimers were expressed in bacteria and purified through the His-α subunit by nickel purification, further purified through gel filtration and finally phosphorylated by incubation with CaMKKβ. This phosphorylated AMPK was incubated with varying concentrations of AMP for 30 mins using substrate and reagents from the HTRF-KinEASE Cisbio assay kit (STK S1 Kit). Phosphorylation of the substrate was measured by incubating with donor and acceptor antibodies for 2 h at room temperature as per the manufacturer's protocol (and Coulerie et al., (2016), see below) and phosphorylated peptide detected by performing HTRF.

primary hepatocytes = test: Lipogenesis in primary hepatocytes ([1-14C]-acetate incorporation into fatty acids); format: cell-based; details: low/non-saturating concentration, 1 h at 37 C
Protocol: Hepatocyte isolation: The liver was first perfused with 50 ml perfusion buffer (Krebs-Hepes buffer with […] EDTA), followed with 50 ml collagenase A buffer (Krebs-Hepes buffer with 5 mM CaCl2) and 0.5 mg/ml collagenase). After passage through a 100 μm mesh, the cell solution was washed several times with cold media and finally the cell culture pellet was resuspended in culture medium (medium 199 (M199)+GlutaMAX, 100 U/ml penicillin G, and 100 μg/ml streptomycin, 0.1% (wt/vol) BSA, 10% FCS, 10 nM insulin, 200 nM triiodothyronine and 500 nM dexamethasone). Hepatocytes were left to attach (3-4 h) and cultured overnight in M199 supplemented with antibiotics and 100 nM dexamethasone. Cells were used for experiments the following morning.
For lipogenesis measurements in primary hepatocytes, cells were seeded at 600 K cells per well in a 6-well plate overnight. Media was replaced with fresh M199 media alone for 2 hours prior to incubation with varying concentrations of Lusianthridin or compound 1 for 1 h at 37 C, in the presence of [1-^14C]-acetate. The incorporation of [^14C] into fatty acids was determined in the lower organic layer after separation from the aqueous phase.
Lipogenesis is controlled by the AMPK substrate ACC, and phosphorylation and inhibition of ACC by AMPK, leads to a decrease in lipogenesis. Lipogenesis was measured in primary hepatocytes by determining the incorporation of ^14C-labelled acetate into fatty acids.
Lipogenesis was monitored in the presence or absence of a low/non-saturating concentration of Lusianthridin or metformin for 1 h at 37 C. Furthermore, cells were incubated in the presence of both of these compounds.

T1 sequence (P54646 whole entry): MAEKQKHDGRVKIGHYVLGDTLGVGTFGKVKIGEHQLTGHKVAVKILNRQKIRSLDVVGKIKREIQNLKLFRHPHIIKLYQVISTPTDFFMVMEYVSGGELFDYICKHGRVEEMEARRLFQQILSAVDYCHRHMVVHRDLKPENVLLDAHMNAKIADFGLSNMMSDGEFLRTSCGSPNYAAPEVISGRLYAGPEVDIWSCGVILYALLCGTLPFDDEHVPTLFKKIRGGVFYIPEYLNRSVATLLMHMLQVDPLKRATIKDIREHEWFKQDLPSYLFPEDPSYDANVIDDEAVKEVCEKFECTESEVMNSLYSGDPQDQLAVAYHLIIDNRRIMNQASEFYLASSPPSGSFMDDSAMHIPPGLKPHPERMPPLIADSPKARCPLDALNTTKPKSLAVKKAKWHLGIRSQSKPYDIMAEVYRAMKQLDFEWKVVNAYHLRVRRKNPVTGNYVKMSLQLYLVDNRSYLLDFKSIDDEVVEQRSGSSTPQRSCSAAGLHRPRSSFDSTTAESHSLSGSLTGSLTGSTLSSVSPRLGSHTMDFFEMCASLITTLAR
T1 sequence (Q9Y478 whole entry): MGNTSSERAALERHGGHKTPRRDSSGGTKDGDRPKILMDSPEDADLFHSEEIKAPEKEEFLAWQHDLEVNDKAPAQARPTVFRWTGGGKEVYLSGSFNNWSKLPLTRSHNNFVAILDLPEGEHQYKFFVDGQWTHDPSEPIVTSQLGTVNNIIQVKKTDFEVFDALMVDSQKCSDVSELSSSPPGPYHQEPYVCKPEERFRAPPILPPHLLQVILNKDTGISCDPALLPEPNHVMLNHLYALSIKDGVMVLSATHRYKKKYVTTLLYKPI
T1 sequence (P54619 whole entry): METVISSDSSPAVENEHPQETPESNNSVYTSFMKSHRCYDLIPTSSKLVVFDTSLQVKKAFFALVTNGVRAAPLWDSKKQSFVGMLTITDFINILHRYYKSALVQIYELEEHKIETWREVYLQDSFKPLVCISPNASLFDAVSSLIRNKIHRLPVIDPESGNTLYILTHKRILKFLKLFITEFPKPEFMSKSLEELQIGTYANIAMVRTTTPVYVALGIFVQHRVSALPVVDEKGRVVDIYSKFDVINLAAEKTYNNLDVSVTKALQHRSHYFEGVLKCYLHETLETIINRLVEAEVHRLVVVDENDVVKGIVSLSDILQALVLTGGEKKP

AMPK activity (HTRF 665 nm/620 nm ratio) ([1]; AMP alone, varying concentrations, 30 mins) | SMILES | inhibition of lipogenesis, compound alone (% lipogenesis compared to control untreated cells) (primary hepatocytes) | activation of AMPK in combination with AMP ([1]; fixed concentrations of Lusianthridin plus varying AMP) | inhibition of lipogenesis, compound alone (% lipogenesis compared to control untreated cells) (primary hepatocytes; listed as metformin)
dose-dependent increase in AMPK activity | Nc1ncnc2c1ncn2[C@@H]1O[C@H](COP(=O)(O)O)[C@@H](O)[C@H]1O [AMP, reference compound] |  |  | 
 | COc1cc(O)c2c(c1)CCc1cc(O)ccc1-2 [Lusianthridin, 7-Methoxy-9,10-dihydrophenanthrene-2,5-diol] | inhibition of lipogenesis; also recorded: able to inhibit lipogenesis | additive activation of AMPK; also recorded: Additive Effect on AMP Activation | 
 | CN(C)C(=N)N=C(N)N [Metformin] | inhibition of lipogenesis |  | able to inhibit lipogenesis
